Patent publication US8372880B2, “Compositions and methods using same for treating amyloid-associated diseases” (Tel Aviv University Future Technology Development L.P., priority 2003, dated 2013)
“And” between values parts separate entries of the source, which are not always exact repeats. Identical values can stand only once. Like-named read-outs stand apart in the source and are kept apart here.

How the values were obtained:
[1] = molecular target: T1, hIAPP1-37 (Homo sapiens, UniProt P10997); assay: Thioflavin T fluorescence assay of fibril formation; type: biochemical
T1 construct: purchased Calbiochem (CalBiochem Calif., USA); host or cells: solid-phase chemical synthesis
T1 sequence (P10997 34-70 limits assumed): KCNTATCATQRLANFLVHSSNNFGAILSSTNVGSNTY
Method: Fibrillization of hIAPP1-37 was monitored by Thioflavin T dye binding assay. hIAPP1-37 stock solution was diluted to a final concentration of 4 μM in 10 mM sodium acetate buffer (pH 6.5) with or without inhibitor, and a final HFIP concentration of 1% (vol). […] In every measurement ThT was added to a final concentration of 3 μM and measurements were carried out using Perkin Elmer (excitation 450 nm, 2.5 nm slit; emission 480 nm 10 nm slit). […] Background was subtracted from all samples.
Thioflavin T (ThT) is commonly used for detecting the level of amyloid formation. hIAPP1-37 solution was prepared as described above. Following incubation in the presence or absence of phenol red and addition of 3 μM ThT to each sample, fluorescence was measured.
Fibrillization of hIAPP1-37 was monitored by Thioflavin T (ThT) dye binding assay, as described above, using an inhibitor concentration of 40 μM or 4 μM.

[2] = system: Caco-2 cells; conditions: for recovery at experiment end point: 90 minutes
Method: Cells at passage 68 were used in these studies. Caco-2 cells were grown in high D-glucose DMEM medium supplemented with 1% L-glutamine, 1% nonessential amino acids, 1% sodium pyruvate, 1% penicillinstreptomycin and 10% fetal bovine serum.
Cells (passage 68) were harvested after 95% confluence and seeded at a density of 85,000 cells per polycarbonate membranes (0.4 μm pore size and a surface area of 0.33 cm^2) inserts. Cells on inserts were cultured for 10 days.
Transport studies: Test substances transport across Caco-2 monolayers was investigated in ‘apical to basolateral’ direction (n=2), at two time points (45 and 90 minutes).
Prior to the experiment, the culture medium was removed; cells were washed twice with 150 μl apical buffer and 600 μl basolateral buffer (containing 25 mM D-glucose, 20 mM HEPES biological buffer, 1.25 mM CaCl2, 0.5 mM MgCl2, adjusted to pH 7.4 with KOH) and were incubated for 30 minutes at 37° C., 45 RPM, with the same buffers.
Transport studies were performed at 37° C., with shaking at 45 RPM with either the tested compounds or standards (n=2). At each time point, aliquot of 120 μl Basolateral sample was drawn from each insert. For the radioactive marker Mannitol, 20 μl duplicate aliquots were drawn at each time point. […] At endpoint (90 minutes), the whole volume of the apical and basolateral chambers was collected.
Data Recording: Substance samples and propranolol standard samples were analyzed using HPLC (see below for analyses details). [^3H]-Mannitol samples were subjected to analysis by liquid scintillation counting in a Packard TopCount NXT. The results were obtained in CPM.
Papp Calculations: Apparent permeability coefficients (Papp) of tested compounds and standards were calculated from the following equation: Papp(t)=(CtV/t)×(1/C0A) where C0 is the initial concentration (at t=0) of the compound on the donor (apical side); Ct is the concentration at the calculated time point (t) in the receiver (basolateral) chamber; V is receiver chamber volume; A is the surface area of the monolayer; and t is the elapsed time.
Compound and standards Recovery: At the last time point of the experiment (90 minutes), basolateral and apical amounts values were measured and recovery (%) of the tested compound or standard was calculated according to the following equation: Recovery %=(C90 min×Vbasolateral)+(C90 min×Vapical)/C0×Vapical
HPLC analyses: HPLC analyses were performed using a Waters 2790 HPLC system, equipped with PDA 996 detector (Waters).

[3] = system: Caco-2 cells
Method: LDH Assay: 100 μl of cells supernatant were removed from the basolateral chamber at the end of transport experiment. LDH release was assayed according to the manufacturer instructions using cytotoxicity detection kit (Roche, Cat. No. 1 644 793).
Specifically, an increase in the amount of dead or plasma membrane-damaged cells results in release of lactate dehydrogenase (LDH) enzyme to the surrounding buffer. The enzymatic activity of LDH is measured in a colorimetric assay. A surfactant that damages cell membranes is used as a positive control.
Short term damage—LDH Release: LDH activity in basolateral buffer from inserts of each group (n=2) was measured in a colorimetric assay as described hereinabove. The positive control glycocholate was previously assayed and is shown for comparison.

[4] = Pharmacokinetics in mice, oral administration
Method: (§1) Male mice (ICR), 5 weeks of age, weighing 27-32 grams at study initiation were used. A total of sixteen animals were tested in each set of experiments, divided to 8 groups, 2 animals in each group. Animals were acclimatized for 5-7 days. All test animals was kept under environmental controlled housing conditions throughout the entire study period, and maintained in accordance with Harlan Biotech Israel (HBI) approved standard operation procedures (SOP's).
Administration to test animals was performed orally, following food deprivation of about 3.5-5 hours, by the use of gavage needle made of stainless steel which was introduced directly to the stomach.
Dosing solutions were prepared as described hereinabove for the I.V. administration.
Blood samples were taken, as described hereinabove, at the following time points: 30, 45, 60, 120, 180, 240, 300 and 360 minutes post dosing, two animals per time point, by retro orbital sinus bleeding under CO2 anesthesia.
(§2) Analysis was performed in Analyst Ltd., using LC/MS/MS method.
(§3) The chromatographic separation was achieved on a Gemini C1 8 column (50×2.0 mm, 5 μm), using 50:50 acetonitrile:water solution containing 0.1% NH4OH as the mobile phase, at a flow rate of 0.3 ml/minute.
(§4) All samples were analyzed by the Micromass Quattro Pt triple-quadrupole mass selective detector equipped with an electrospray ionization source. […] The system includes a 2795 HT Waters HPLC and Masslynx v.4.0 software. Quanlynx v.4.0 software was used for calculation.
(§5) For calculation of phenol red concentration in samples, weighted linear regression curves (1/x^2) were calculated from response of analyte versus calibration standard concentration. The weighted linear regression correlation coefficient was grater than 0.99.
(§6) K Parameters Calculations: PK parameters were calculated using Winnonlin Pro 4.01 software (Pharsight).

[5] = Pharmacokinetics in mice, intravenous administration; conditions: for PF3 Concentration / Phenol red Concentration, Analyzed: mice plasma
Method: as §1
A single slow intravenous injection (over a period of approximately one minute) was administered into one of the tail veins of each animal.
Dosing solutions were prepared in a co-solvent vehicle system containing DMA:PEG400:Saline 25:40:35 respectively (e.g., each 1 ml consists of 0.25 ml DMA, 0.4ml PEG400 and 0.35 ml Saline).
Dosing solutions were freshly and identically prepared prior to dosing, as deemed necessary.
Blood samples were taken at the following time points: pre-dosing (time 0), 5, 15, 30, 60, 90, 120 and 300 minutes post dosing, two animals per time point, by retro orbital sinus bleeding under CO2 anesthesia. Individual blood samples of at least 0.4 ml whole blood were collected into pre-labeled lithium heparin coated tubes. Plasma separation was made as soon as possible after collection, by centrifugation at 2500G for 15 minutes. After centrifugation supernatant was transferred to eppendorff tube (1.5 ml) pre-labeled with the appropriate animal number, study number and time post dosing. Plasma samples were kept at about −20° C.
as §2, §3, §4, §5, §6

[6] = molecular target: T2, hIAPP20-29 (Homo sapiens, UniProt P10997); assay: Kinetic aggregation assay (turbidity); type: biochemical; conditions: 1 mM peptide, 40 mM inhibitor, Tris pH 7.2, 4% DMSO
T2 construct: purchased Peptron, Inc. (Taejeon, Korea); host or cells: solid-phase chemical synthesis
Method: Stock solutions of hIAPP22-29 and hIAPP20-29 peptide were prepared by dilution of lyophilized peptides into 10 mM Tris-HCl (pH 7.2) buffer to a final concentration of 1 mM peptide and 4% DMSO. Turbidity data were collected at 405 or 560 nm at room temperature. A buffer solution containing the same amount of DMSO as the tested samples was used as blank. Turbidity was measured using disposable UVette cuvettes (Eppendorf, Germany) and a Scinco S-3100 spectrophotometer.
The core amyloidogenic fragments of hIAPP (hIAPP22-29, hIAPP20-29) aggregate in an aqueous solution. Such an aggregation behavior was served as a preliminary assay for amyloid formation.
In order to evaluate the ability of phenol red to inhibit amyloid formation, the aggregation of 1 mM hIAPP22-29 and hIAPP20-29 (SEQ ID NO: 1 and NO: 2, respectively) was examined in the absence or presence of 40 mM phenol red. To verify the specificity of phenol red molecule towards hIAPP core peptides, a very similar molecule—phenolphthaleine, which differs only by the lack of the sulfon group, was used as control (FIG. 7).

[7] = molecular target: T2, hIAPP20-29; assay: Transmission electron microscopy of fibrils; type: biochemical; conditions: hIAPP20-29 with inhibitor, 24 hr incubation
Method: 10 μL samples of hIAPP22-29 or hIAPP20-29 from the aggregation assay, and hIAPP1-37 from the fluorescence assay were placed on 400-mesh copper grids (SPI supplies, West Chester Pa.) covered by carbon-stabilized Formvar film. After 1 minute, excess fluid was removed, and the grids were negatively stained with 2% uranyl acetate in water for another two minutes. Samples were viewed in a JEOL 1200EX electron microscope operating at 80 kV.
Samples of hIAPP22-29 and hIAPP20-29 taken from the aggregation assay (described in Example 3) were visualized using transmission electron microscopy. As is shown in FIG. 4a, distinct and well-defined amyloid fibers were observed 3 and 72 hours after initiation of aggregation in both samples of the hIAPP22-29 peptide, with a minor increase in fiber density and width following 72 hours. […] Same results were obtained with the hIAPP20-29 peptide after 24 hr incubation (FIG. 4b) in the presence of phenol red inhibitor. No inhibition was observed using phenolphthaleine under the same conditions and fibrillar structures were evident on the TEM grid.

[8] = system: βTC-tet cells; assay: MTT cell viability assay, hIAPP cytotoxicity; type: cell-based, murine; conditions: 4 μM hIAPP1-37, 24 hrs, phenol red in medium, 50% without phenol red
Method: βTC-tet cells [Fleischer, N., Chen C., Surana, M., Leiser, M., Rossetti, L., Pralong, W. and Efrat, S. (1998) Functional analysis of a conditionally transformed pancreatic beta-cell line, Diabetes 47, 1419-1425] or PC12 cells (ATCC # CRL-1721) were plated on 24-well plates (2-10^5/well) or on 96-well plates (1-10^4/well) respectively, and allowed to adhere for 24 hours. Synthetic hIAPP1-37 stock solution was diluted to a final concentration of 4 μM in serum free growth medium [Fleischer (1998) Supra] containing DMEM with or without phenol red. Immediately following dilution, samples were centrifuged at 4° C. for 20 minutes at 20,000 g, and the supernatant was bubbled with nitrogen for 30 min to evaporate residual HFIP. Cells were washed twice with PBS and incubated with the supernatant for 24 hrs. MTT (Sigma M-2128) was then added for 3 hrs, followed by addition of lysis buffer and incubation over night. Assay was effected according to Manufacturer's instructions. Samples were read at 570 nm. Cell viability was calculated in comparison to cells incubated in the absence of hIAPP in medium with or without phenol red, respectively.
The ability of phenol red to modulate cytotoxicity effect of hIAPP amyloid assemblies on pancreatic β cells in culture was addressed. […]

[9] = 4 μM hIAPP1-37, 40 μM inhibitor
[10] = I.V. PF3, 5 minutes post dosing
[11] = I.V. PF3, 15 minutes post dosing
[12] = I.V. PF3, 30 minutes post dosing
[13] = I.V. PF3, 60 minutes post dosing
[14] = I.V. PF3, 125 minutes post dosing
[15] = I.V. PF3, 300 minutes post dosing
[16] = phenol red plasma profile, mice, I.V. PF3
[17] = phenol red plasma profile, mice, I.V. PF3 .25 mg/kg

Compound: diacetoxy phenol red [PF3]
- inhibition of hIAPP1-37 fibril formation (ThT fluorescence) [1, 9]: reduced inhibition effect relatively to the phenol red molecule
- recovery at experiment end point ([2]; 1 mM concentration): 53%±5%
- permeability grading ([2]; CaCo-2, apical to basolateral): low-medium range
- Papp values compared to standards ([2]; apical to basolateral, 45 and 90 minutes): higher than mannitol (a marker of paracellular transport) Papp values and lower than propranolol
- detection of transport ([2]; higher concentration (0.1 mM)): detected
- detection in the basolateral chamber ([2]; lower concentration (0.02 mM), 45 and 90 minutes): not detected
- LDH activity in basolateral buffer ([3]; 0.1 mM, only one of the inserts, not repeated, attributed to a factor other than PF3): increase in LDH activity was detected
- presence of the pro-drug PF3 in plasma ([4]; following oral administration): not detected
- intestinal absorption ([4]; oral administration): clearly absorbed in the intestine
- Half Life ([4]; phenol red plasma profile, P.O. PF3 […]): 32 min
- F, Bioavailability ([4]; phenol red plasma profile, P.O. PF3 […] vs I.V.): 16%
- PF3 Concentration [5, 10]: n/d (not detected and denotes a concentration lower than 5 ng/ml)
- Phenol red Concentration, Analyzed [5, 10]: >20 µg/mL
- PF3 Concentration [5, 11]: n/d (not detected and denotes a concentration lower than 5 ng/ml)
- Phenol red Concentration, Analyzed [5, 11]: >20 µg/mL
- PF3 Concentration [5, 12]: n/d (not detected and denotes a concentration lower than 5 ng/ml)
- Phenol red Concentration, Analyzed [5, 12]: >20 µg/mL
- PF3 Concentration [5, 13]: n/d (not detected and denotes a concentration lower than 5 ng/ml)
- Phenol red Concentration, Analyzed [5, 13]: 4.12 µg/mL and 4.33 µg/mL
- PF3 Concentration ([5]; I.V. PF3, 90 minutes post dosing): n/d (not detected and denotes a concentration lower than 5 ng/ml)
- PF3 Concentration [5, 14]: n/d (not detected and denotes a concentration lower than 5 ng/ml)
- Phenol red Concentration, Analyzed [5, 14]: 0.76 µg/mL
- PF3 Concentration [5, 15]: n/d (not detected and denotes a concentration lower than 5 ng/ml)
- Phenol red Concentration, Analyzed [5, 15]: 0.22 µg/mL and 0.29 µg/mL
- presence of the pro-drug PF3 in plasma ([5]; mice, following I.V. administration, even after 5 minutes): not observed
- AUC (area under the curve) [5, 16]: 2232 µg·min/mL
- Volume of distribution (Vss) [5, 16]: 0.367 L/kg
- Clearance [5, 17]: 11 mL/min/kg
- Half Life [5, 17]: 40 min

Compound: O=C1OC(c2ccc(O)cc2)(c2ccc(O)cc2)c2ccccc21 [phenolphthaleine]
- aggregation of hIAPP20-29 (turbidity) [6]: No inhibition effect
- fibril morphology by TEM [7]: No inhibition
- fibril morphology by TEM ([7]; listed as phenolephthaleine): no inhibition effect

Compound: O=S1(=O)OC(c2ccc(O)cc2)(c2ccc(O)cc2)c2ccccc21 [phenol red]
- IC50 ([1]; 4 μM hIAPP1-37, gradual concentration of phenol red, read-out: IC50 of inhibition of fibril formation (ThT fluorescence)): ~2500 nM
- inhibition level of fibril formation (ThT end point) ([1]; phenol red concentration of 20 μM and above, after one week of incubation): about 90%
- cell viability (MTT) [8]: 80%

Compound: COc1ccc(C2(c3ccc(OC)cc3)OS(=O)(=O)c3ccccc32)cc1 [PF4, dimethoxy phenol red]
- inhibition of hIAPP1-37 fibril formation (ThT fluorescence) [1, 9]: reduced inhibition effect relatively to the phenol red molecule
- inhibition of hIAPP1-37 fibril formation (ThT fluorescence) ([1]; 40 μM inhibitor, sample not centrifuged): more evident
- recovery at experiment end point ([2]; 0.2 mM concentration): 105%±31%
- recovery at experiment end point ([2]; 1 mM concentration): 123%±48%
- detection at the basolateral chamber ([2]; both tested concentrations): not detected
- cytotoxicity (LDH activity in basolateral buffer) ([3]; CaCo-2 inserts after transport experiment): negligible

Compound: Nc1c(/N=N/c2ccc(-c3ccc(/N=N/c4cc(S(=O)(=O)O)c5ccccc5c4N)cc3)cc2)cc(S(=O)(=O)O)c2ccccc12 [congo red, Congo red, reference compound]
- inhibition of hIAPP1-37 fibril formation (ThT fluorescence) ([1]; green tea polyphenols experiment, 48 hr to 12 days): inhibitory effect
